Experimental data: US11039618B2, “Metam salts and polysulfide soil treatment” (Tessenderlo Kerley, Inc, priority 2016, dated 2021)

Key:
soilborne fungi = assay: Visual observation of general fungal growth on the plates (jar test); assay type: cell-based; settings: observed visually on the plates
From the text: The general impact of LSS on fungal growth was also observed visually on the plates.

Verticillium [1] = assay: Jar test 2016: Verticillium microsclerotia colonies in treated soil, dry soil plating on NP-10; assay type: cell-based, Verticillium dahliae; settings: Metam 40 gal/acre (190 kg active/ha); 2016
Experimental: (§1) These investigations were performed under laboratory conditions in an initial jar test. We also investigated the pathogen control efficacy of LSS treatments, at 30 gal/acre (90 pounds/acre or 101 Kg/ha of calcium polysulfide) and at 90 gal/acre (276 pounds/acre or 310 Kg/ha of calcium polysulfide), and combined Metam/LSS treatments using Sectagon® brand metam at 20 gal/acre Metam (84 pounds/acre or 94 Kg/ha of metam sodium) with 40 gal/acre LSS (122 pounds/acre or 138 Kg/ha of calcium polysulfide); and at 30 gal/acre Metam (126 pounds/acre or […] of metam sodium) with 20 gal/acre LSS (60 pounds/acre or 67 kg/ha of calcium polysulfide). […] This may be due to lower water saturation in the 2016 tests compared to the saturation in 2015 tests, which was near 100%.
Each treatment listed in Table 1 was replicated 4 times. Verticillium levels in soil were assessed by dry incubation on semi selective media (NP-10) method. Soil collected from a Romaine lettuce field in Salinas, Calif. was used for the investigation. […]
Experimental Setup: Seven treatments were installed in 4 replicates each. […] The equivalent of gal/acre was calculated on the assumption that on acre of soil has an average weight of 3,625,895 lbs. […] Afterwards, soil was split between the two laboratories and were assessed according to the method described.
Verticillium levels in soil were assessed by dry incubation on semi selective media (NP-10). […]
The quantity of Verticillium in soil was assessed by dry soil plating on NP-10 semi-selective medium. […] After that, remaining soil was gently washed off the plates and the number of Verticillium microsclerotia colonies were counted on each plate under a microscope. The number of microsclerotia colonies is used as a standard method to quantify Verticillium in soil and was extrapolated for 1 g soil.
Results were analyzed in a one-way ANOVA (P=0.05) and a Fisher LSD Post-Hoc test. […]
Verticillium assessments were performed parallel in two separate laboratories. […] The quantity of Verticillium in soil was assessed by dry soil plating on NP-10 semi-selective medium. […]

Black Dot = assay: Field test near Moses Lake, Wash.: black dot colonies in soil after shank treatment; parameters: species or system Colletotrichum coccodes; settings: single sample sites, 4 inches depth; metam 45 gal/acre; LSS 90 gal/acre; metam + LSS 30 + 30 gal/acre
Experimental: A field test was performed in small plots in a grower's location in near Moses Lake, Wash. using commercial equipment, shanking the product 8-9 inches into the ground, in February 2016. A few treated areas were sampled a few months after treatment. This field is believed to be low in pest pressure. […] The mixture is compatible as a ground application, including using standard tanks, hoses, nozzles, and shanks. It is believed the product will also be stable when added to water to form a dilute product, due to the sodium or potassium hydroxide in metam. Therefore, alkali sulfide salts need not be added.
Location 1 was treated with 45 gallons per acre of Sectagon®, the metam sodium solution, equivalent to 191 pounds metam sodium per acre. This is considered a standard treatment protocol. Section 2 was treated with only liquid lime sulfur, at 90 gallons per acre (276 pounds calcium polysulfide/acre). Section 3 was treated with 30 gallons per acre Sectagon® and 30 gallons per acre liquid lime sulfur (92 pounds calcium polysulfide and 127 pounds metam sodium per acre). The treatment chemicals were obtained from Tessenderlo Kerley. A sufficient time following the treatments, V. dahliae concentrations and black dot concentrations were determined at 4 inches depth and at 8 inches depth at three random sample sites in each treated plot. No controls were run, and the variability in samples were high. […]

Verticillium [2] = assay: Jar test 2015: Verticillium microsclerotia colonies in treated soil (soil moisture 35% w/w); assay type: cell-based, Verticillium dahliae; settings: Metam 68 gal/acre (323 kg active/ha)
Experimental: as §1
The major difference between the 2015 tests and the 2016 tests was soil moisture. For the 2015 tests the soil moisture was set at 35% w/w (ca. 100% field capacity). For the 2016 tests, the soil moisture was set at 20% w/w (ca. 66% field capacity).
Differences in test protocol between 2015 and 2016 tests are summarized below, and colony counts per gram of dry soil for the 2015 tests are shown below.
2015: Soil Moisture 35% w/w (ca. 100% field capacity)
2016: Decided 2015 soil moisture was too high; reduced to 20% w/w. […]

CNC(=S)S [Metam, sodium methyldithiocarbamate]
reduction of fungal growth of soilborne fungi (soilborne fungi): ~100% | Microsclerotia (Verticillium) per gram of soil, ms/g, 2016 (Verticillium [1]): 6.5 ms/g | Black Dot, 4″ (Black Dot): 0 colonies per gram of soil | Microsclerotia (Verticillium) per gram of soil, ms/g, 2015 (Verticillium [2]): 3 ms/g
